{"source": "patent US12663415B2", "about": "“Chromogenic and fluorogenic compounds and their use for biological detection” (AAT Bioquest, Inc., priority 2022, dated 2026)", "key": {"[1]": {"tested_on": "E. coli endotoxin", "assay": "Detection of endotoxin with Limulus Amebocyte Lysate (LAL) and fluorogenic substrate", "format": "biochemical", "settings": "Ex/Em=490/525 nm", "description": "FIG. 5. Illustrates the detection of E. coli endotoxin with an exemplary compound. E. coli endotoxin is measured in a black/solid bottom 96-well plate with Compound 7. The fluorescence intensity is recorded using a Gemini microplate reader at Ex/Em=490/525 nm, cutoff=515 nm. As low as 0.001 EU/mL of E. coli endotoxin can be detected.\nEndotoxin is the major component of the outer membrane of Gram-negative bacteria. endotoxin is a potent stimulator of the vertebrate innate immune system and can cause fever, septic shock and eventually death. It is recognized as a biomarker for the detection of bacterial pathogen invasion and is responsible for the development of inflammatory response and endotoxic shock in extreme cases. […] The LAL enzymatic cascade can be activated by endotoxin at pH 6.0 to 7.5, and the amount of activated enzyme present can be measured by its ability to cleave the fluorogenic and/or chromogenic substrate. […] The endotoxin activity is proportional to the fluorescence intensity of rhodamine 110 resulting from the hydrolysis of Compound 7. The concentration of endotoxin in a sample can be calculated from a standard curve. […] The fluorescence intensities of the test sample solutions are recorded with a fluorescence microplate reader at Ex/Em=490/525 nm within 10-30 minutes."}, "[2]": {"tested_on": "Caspase 3/7", "assay": "Detection of apoptosis / caspase 3/7 activities in Jurkat cells, whole cell assay", "format": "cell-based", "settings": "staurosporine 0.5 μg/ml 2 hours, 50 μM substrate 2 hours at 37° C., Ex/Em=540/620 nm", "description": "FIG. 3. Illustrates the detection of Caspase 3/7 activities in Jurkat cells with Compound 4. Jurkat cells are seeded on the same day at 200,000 cells/90 μL/well in a Costar black wall/clear bottom 96-well plate. The cells are treated with or without 1 μM of staurosporine for 5 hours. The caspase 3/7 working solution (100 μL/well) are added and incubated at room temperature for 1 hour. The fluorescence intensity is measured at Ex/Em=540/620 nm (Cutoff=610 nm) with FlexStation fluorescence microplate reader.\nJurkat T leukemia cells are grown in RPMI 1640 media (Life Technologies, Inc.) and 10% FCS (Sigma Chemical Company) in a 5% CO2-95% humidity incubator at 37° C., and maintained at a cell density between 4 and 8×10^5 cells/ml. Cells were harvested at 200×g and resuspended at 1×10^6 cells/ml into RPMI 1640 media containing 10% FCS and 1 ml each were dispensed in 2-wells of a 6-well plate. The apoptosis inducer staurosporine is added at 0.5 μg/ml concentration and the plate is incubated for 2 hours at 37° C. in a 5% CO2-95% humidity incubator. Cells are incubated with 50 μM of substrate Compound 4 for 2 hours at 37° C. in serum-free RPMI medium. The samples are analyzed with a fluorescence microplate reader (top or bottom read mode) at Ex/Em=540/620 nm (Cutoff=610 nm)."}}, "note": "Starred links: 1 amine or outer side, 2 acyl side, 3 side chain; linkers in the order of their positions; H or OH if unused. Positions of bridges follow the written chain, without caps; N, C: chain ends. Residues, ends and D or L forms follow the SMILES beside them. Chains are numbered I, II in the order given. Rhodamine110 = O=C1OC2(c3ccc(N[*:1])cc3Oc3cc(N[*:2])ccc32)c2ccccc21", "data": [{"compound": "CCC(C)C(NC(C)=O)C(=O)NC(CCC(=O)O)C(=O)NC(C)C(=O)NC(CCCNC(=N)N)C(=O)Nc1ccc2c(c1)Oc1cc(NC(=O)C(CCCNC(=N)N)NC(=O)C(C)NC(=O)C(CCC(=O)O)NC(=O)C(NC(C)=O)C(C)CC)ccc1C21OC(=O)c2ccccc21", "note": "(stereo not drawn) [Compound 7] (I: Ac-IEAR / II: Ac-IEAR; linker I:C-II:C via Rhodamine110; configuration not given here)", "values": [{"measurement": "lowest detectable E. coli endotoxin", "setting": "[1]; 96-well plate, cutoff=515 nm", "result": 0.001, "unit": "EU/mL"}, {"measurement": "fluorescence of hydrolyzed product (rhodamine 110) after hydrolysis by LAL in the presence of endotoxins", "setting": "[1]; LAL 100 U, 10 uM substrate", "result": "strong green fluorescence"}]}, {"compound": "Compound 4 (DVED)", "values": [{"measurement": "cleavage of the caspase-3/7 substrate on induction of apoptosis", "setting": "[2]", "result": "leads to cleavage"}]}]}
